Consider 15 compounds from PubChem BioAssay (NCI).

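1) Cells in 96-well plates. 2) Compound, 48 h, 5 concentrations. 3) Linear interpolation between surrounding doses. 4) Unreached endpoint = highest concentration. At the TGI there is no net growth.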

Holding throughout (assay): NCI anticancer screen, dose series, 48 h
The subject of experiment [1] is MOLT-4 leukemia.
Experiment [2] concerns T-47D breast.
For experiment [3], the system named is EKVX NSCLC.
For experiment [4], the system named is ACHN renal.
In experiment [5] the test system is CAKI-1 renal.
Experiment [6] deals with MDA-MB-435.
Experiment [7] has as its system DU-145 prostate.
Experiment [8] relates to K-562 leukemia.
For experiment [9], the system named is SK-MEL-2 melanoma.

In the case of `COc1ccc(C2CCc3c(cnc4nc(N)nc(N)c34)C2)cc1` (stereo not given), the TGI is greater than 100 µM in [1]; 95.3 µM in experiment [2]; greater than 100 µM in [3]; 51 µM in [4]; greater than 100 µM in experiment [5]; greater than 100 µM in experiment [6]. The TGI in experiment [7], in experiment [8] and in [9] was greater than 100 µM each time.
As to `Cc1cc(=O)oc2c(CN(CCCl)CCCl)c(O)ccc12`, the TGI was 98.8 µM in [1]; greater than 100 µM in [2]; greater than 100 µM in experiment [3]; greater than 100 µM in experiment [4]; greater than 100 µM in experiment [5]; greater than 100 µM in experiment [6]. Besides, the TGI in experiment [7], in experiment [8] and in experiment [9] was greater than 100 µM in each case.
With `O=C1CSC(c2cc3cc(Br)ccc3nc2Cl)N1c1ccc(F)c(Cl)c1` (stereo not given), the TGI was 32.9 µM in [1]; greater than 50 µM in experiment [2]; greater than 50 µM in [3]; greater than 50 µM in experiment [4]; greater than 50 µM in experiment [5]; greater than 50 µM in experiment [6]. For the same compound, the TGI in experiment [7], in experiment [8] and in [9] was greater than 50 µM in each case.
With `COc1cc(OC)cc(-c2nc3ccccc3c(=O)[nH]2)c1`, the TGI in experiment [1], in experiment [2], in experiment [3], in [4], in experiment [5] and in [6] was greater than 100 µM throughout. In addition, the TGI in experiment [7], in [8] and in experiment [9] was greater than 100 µM each time.
As for `CO/C=C(/C(=O)OC)c1ccccc1[C@H]1C[C@@H]1c1ccccc1`, the TGI in [1] is greater than 100 µM; in experiment [2], 63.1 µM; in [3], 54.6 µM; in experiment [4], 60.6 µM; in experiment [5], 52.6 µM; in experiment [6], 43.3 µM. The TGI is greater than 100 µM in [7], greater than 100 µM in experiment [8] and 34.8 µM in experiment [9].
Turning to `CC1CC/C(=C\c2ccc(F)cc2)C2=C1C(c1ccc(F)cc1)NC(=S)N2` (stereo not given), the TGI in experiment [1] was greater than 100 µM; in experiment [2], 70.8 µM; in [3], 79.3 µM; in experiment [4], greater than 100 µM; in experiment [5] it was greater than 100 µM; in experiment [6] it was greater than 100 µM. Further, the TGI in experiment [7], in experiment [8] and in experiment [9] was greater than 100 µM each time.
Regarding `CC(=O)O[C@H]1CC[C@]2(C=O)[C@H]3CC[C@]4(C)[C@@H](C5=CC(=O)OC5)CC[C@]4(O)[C@@H]3CC[C@]2(O)C1`, the TGI in [1] was determined as 0.0798 µM; in experiment [2], 2.68 µM; in experiment [3], 0.615 µM; in experiment [4], 0.557 µM; in experiment [5] it was 0.06 µM; in experiment [6], 0.984 µM. Besides, the TGI is 0.391 µM in [7], greater than 100 µM in [8] and 1.08 µM in experiment [9].
Turning to `Cc1nc2cccc(F)c2c(=O)n1-c1nnc(C2CC2)s1`, the TGI in experiment [1], in experiment [2], in [3], in experiment [4], in experiment [5] and in experiment [6] was greater than 10 µM each time. The TGI in experiment [7], in experiment [8] and in experiment [9] was greater than 10 µM in each case.
Take `N#CC(NNC(=O)c1c(Cl)c(Cl)c(Cl)c(Cl)c1-c1nc2ccc(C(=O)c3ccccc3)cc2[nH]1)c1cccc(Oc2ccccc2)c1` (stereo not given): the TGI is greater than 100 µM in experiment [1]; 76.2 µM in experiment [2]; 37.6 µM in experiment [3]; 88.8 µM in experiment [4]; greater than 100 µM in experiment [5]; 53.6 µM in [6]. Also, the TGI in experiment [7] was greater than 100 µM; in [8] it was greater than 100 µM; in experiment [9], 47.2 µM.
Take `CSC(=N/N=C(\C)c1ccc(S(=O)(=O)N(C)c2ccccc2)cc1)SC`: the TGI in [1], in experiment [2], in experiment [3], in experiment [4], in experiment [5] and in experiment [6] was greater than 100 µM in each case. Besides, the TGI in experiment [7], in [8] and in experiment [9] was greater than 100 µM in each case.
As to `Cc1cc(S(=O)(=O)Nc2n[nH]c(N)n2)c(S)cc1Cl`, the TGI in [1], in experiment [2], in experiment [3], in experiment [4], in experiment [5] and in experiment [6] was greater than 10 µM each time. Further, the TGI in experiment [7], in [8] and in experiment [9] was greater than 10 µM each time.
In the case of `O=C(N(C1=CCCC1)N(c1ccccc1)c1ccccc1)C(F)(F)F`, the TGI in [1] was 76.2 µM; in [2] it was 65.8 µM; in experiment [3], 39.1 µM; in [4] it was 38.8 µM; in experiment [5], 80.4 µM; in experiment [6], 50.4 µM. Also, the values for the TGI in experiment [7], in [8] and in experiment [9] were 81.5 µM, 68.7 µM and 35 µM, respectively.
`CC(C)(C)C1=CC(O)(c2c3ccccc3c(C3(O)C=C(C(C)(C)C)C(=O)C(C(C)(C)C)=C3)c3ccccc23)C=C(C(C)(C)C)C1=O`: the TGI in experiment [1] was greater than 100 µM; in experiment [2], greater than 100 µM; in experiment [3] it was greater than 100 µM; in experiment [4], greater than 100 µM; in experiment [5] it was greater than 100 µM; in experiment [6], 0.0354 µM. Moreover, the TGI in experiment [7], in experiment [8] and in experiment [9] was greater than 100 µM throughout.
On to `CC(=O)c1nc(C#N)c(N)o1`, for which the TGI in [1], in experiment [2], in experiment [3], in experiment [4], in experiment [5] and in experiment [6] was greater than 100 µM each time. The TGI in experiment [7], in experiment [8] and in experiment [9] was greater than 100 µM in each case.
Consider `CN1C(=O)[C@](C)(Cc2ccc(F)cc2)N(C(=O)OC(C)(C)C)[C@@H]1C(C)(C)C`, for which the TGI in experiment [1] is 40.6 µM; in experiment [2], 90.1 µM; in experiment [3] it was greater than 100 µM; in experiment [4] it was greater than 100 µM; in [5], greater than 100 µM; in experiment [6] it was greater than 100 µM. Moreover, the TGI in experiment [7] is greater than 100 µM; in experiment [8] it was 65.7 µM; in experiment [9] it was greater than 100 µM.
